# Experimental data published in patent US20240245666A1, “DOSING REGIMENS” (Novartis AG, priority 2021, published 2024).
# Where “and” joins values, the source holds several entries; their conditions need not be identical. Equal values may be shown once. Read-outs that look alike come from different tables or passages of the source.
# Tests used:
# [1] = In vitro flux study: dissolution and permeation of asciminib film-coated tablets through an artificial lipid membrane; assay type: in vitro ADME; settings: 2×20 mg film-coated tablets; for flux rate (permeation through an artificial lipid membrane): 37° C.
# Protocol: The donor compartment of a United States Pharmacopeia, Method II (USP II) dissolution apparatus (Distek corporation; New Jersey, United States) was filled with 900 mL maleate buffer containing either low concentrations of bile salts (imitating fasted conditions; Fasted State Simulated Intestinal Fluid [FaSSIF]; 3 mM taurocholate/taurodeoxycholate, 0.2 mM phospholipids/lysophospholipids, pH 5.8), high concentrations of bile salts (imitating fed intestinal conditions; Fed State Simulated Intestinal Fluid [FeSSIF]; 10 mM taurocholate/taurodeoxycholate, 2 mM phospholipids/lysophospholipids, 0.8/5.0 mM oleate/glycerol monoleate, pH 6.0), or no bile salts (control; pH 6.5). […] Two replicates per condition were performed.
# [2] = single agent, patients with CML; cited from earlier work
# [3] = initial asciminib tablet formulations, cited from earlier work
# [4] = clinical; settings: human, in vivo, 40 mg
# [5] = clinical; settings: human, plasma, oral, 40 mg
# [6] = Phase I study, FE study group: asciminib under fasted, low-fat meal and high-fat meal conditions (PK and safety); settings: for asciminib AUCinf, Gmean / asciminib AUCinf, Median / asciminib AUCinf, adjusted Gmean / asciminib AUClast, Gmean / asciminib AUClast, Median / asciminib AUClast, adjusted Gmean / asciminib Cmax, Gmean / asciminib Cmax, Median / asciminib Cmax, Range / asciminib Cmax, adjusted Gmean / asciminib T1/2, Range / asciminib Tmax, Range / reduction in asciminib exposure (AUCinf; AUCinf and AUClast) compared with fasted conditions / asciminib Tmax, Median: single 40 mg;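 note: healthy volunteers, open-label single-center study, PK parameters from individual plasma concentration-time profiles by non-compartmental analysis, 7-day washout between treatment periods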
# [7] = Phase I study, DDI study group: asciminib with or without imatinib at steady state under low-fat meal conditions (PK and safety); settings: imatinib 400 mg qd steady state alone (Day 12)
# [8] = control buffer, no bile salts (pH 6.5)
# [9] = fasted state buffer (FaSSIF, pH 5.8)
# [10] = fed state buffer (FeSSIF, pH 6.0)
smiles,measurement,setting,value
"O=C(Nc1ccc(OC(F)(F)Cl)cc1)c1cnc(N2CC[C@@H](O)C2)c(-c2ccn[nH]2)c1 [asciminib, N-[4-(Chlorodifluoromethoxy)phenyl]-6-[(3R)-3-hydroxypyrrolidin-1-yl]-5-(1H-pyrazol-5-yl)pyridine-3-carboxamide]",dissolution,[1]; [8],82.3%
same,flux rate (permeation through an artificial lipid membrane),[1]; [8],2.66 µg/min
same,dissolution,[1]; [9],93.1%
same,flux rate (permeation through an artificial lipid membrane),[1]; [9],1.45 µg/min
same,dissolution,[1]; [10],94.2%
same,flux rate (permeation through an artificial lipid membrane),[1]; [10],0.44 µg/min
same,maximum tolerated dose (not reached),[2],> 200 mg twice daily
same,decreased asciminib exposure compared with the fasted state,[3]; high-fat meal,~65% and 63-64%
same,decreased asciminib exposure compared with the fasted state,[3]; low-fat meal,~30% and 30-31%
same,clearance,[4],185 mL/min
same,half-life,[5],13.5 h
same,participants with at least 1 AE,"[6]; FE group, 11 of 24 participants",45.8%
same,participants with oropharyngeal pain and rhinitis (each),"[6]; FE group, each n=2",8.3%
same,"asciminib AUCinf, Gmean","[6]; fasted, n=24",5830 ng·h/mL
same,"asciminib AUCinf, Median","[6]; fasted, n=24",5890 ng·h/mL
same,"asciminib AUCinf, adjusted Gmean","[6]; fasted, n=24",5830 ng·h/mL
same,"asciminib AUClast, Gmean","[6]; fasted, n=24",5730 ng·h/mL
same,"asciminib AUClast, Median","[6]; fasted, n=24",5820 ng·h/mL
same,"asciminib AUClast, adjusted Gmean","[6]; fasted, n=24",5730 ng·h/mL
same,"asciminib Cmax, Gmean","[6]; fasted, n=24",550 ng/mL
same,"asciminib Cmax, Median","[6]; fasted, n=24",572 ng/mL
same,"asciminib Cmax, Range","[6]; fasted, n=24",280 to 1050 ng/mL
same,"asciminib Cmax, adjusted Gmean","[6]; fasted, n=24",550 ng/mL
same,"asciminib T1/2, Range","[6]; fasted, n=24",9.18 to 19.1 h
same,"asciminib Tmax, Range","[6]; fasted, n=24",1.00 to 5.00 h
same,reduction in asciminib exposure (AUCinf; AUCinf and AUClast) compared with fasted conditions,[6]; high-fat meal,62.3% and 62-63%
same,"asciminib AUCinf, Gmean","[6]; high-fat meal, n=24",2200 ng·h/mL
same,"asciminib AUCinf, Median","[6]; high-fat meal, n=24",2040 ng·h/mL
same,"asciminib AUCinf, adjusted Gmean","[6]; high-fat meal, n=24",2200 ng·h/mL
same,"asciminib AUClast, Gmean","[6]; high-fat meal, n=24",2130 ng·h/mL
same,"asciminib AUClast, Median","[6]; high-fat meal, n=24",1960 ng·h/mL
same,"asciminib AUClast, adjusted Gmean","[6]; high-fat meal, n=24",2130 ng·h/mL
same,"asciminib Cmax, Gmean","[6]; high-fat meal, n=24",175 ng/mL
same,"asciminib Cmax, Median","[6]; high-fat meal, n=24",159 ng/mL
same,"asciminib Cmax, Range","[6]; high-fat meal, n=24",82.2 to 423 ng/mL
same,"asciminib Cmax, adjusted Gmean","[6]; high-fat meal, n=24",175 ng/mL
same,"asciminib T1/2, Range","[6]; high-fat meal, n=24",8.81 to 18.1 h
same,"asciminib Tmax, Median","[6]; high-fat meal, n=24",4.01 h
same,"asciminib Tmax, Range","[6]; high-fat meal, n=24",1.00 to 8.00 h
same,reduction in asciminib exposure (AUCinf; AUCinf and AUClast) compared with fasted conditions,[6]; low-fat meal,30%
same,"asciminib AUCinf, Gmean","[6]; low-fat meal, n=23",4130 ng·h/mL
same,"asciminib AUCinf, Median","[6]; low-fat meal, n=23",4300 ng·h/mL
same,"asciminib AUCinf, adjusted Gmean","[6]; low-fat meal, n=23",4080 ng·h/mL
same,"asciminib AUClast, Gmean","[6]; low-fat meal, n=23",4060 ng·h/mL
same,"asciminib AUClast, Median","[6]; low-fat meal, n=23",4270 ng·h/mL
same,"asciminib AUClast, adjusted Gmean","[6]; low-fat meal, n=23",4010 ng·h/mL
same,"asciminib Cmax, Gmean","[6]; low-fat meal, n=23",363 ng/mL
same,"asciminib Cmax, Median","[6]; low-fat meal, n=23",365 ng/mL
same,"asciminib Cmax, Range","[6]; low-fat meal, n=23",172 to 709 ng/mL
same,"asciminib Cmax, adjusted Gmean","[6]; low-fat meal, n=23",359 ng/mL
same,"asciminib T1/2, Range","[6]; low-fat meal, n=23",9.70 to 17.7 h
same,"asciminib Tmax, Median","[6]; low-fat meal, n=23",3.00 h
same,"asciminib Tmax, Range","[6]; low-fat meal, n=23",0.997 to 5.00 h
Cc1ccc(NC(=O)c2ccc(CN3CCN(C)CC3)cc2)cc1Nc1nccc(-c2cccnc2)n1 [imatinib],"imatinib AUC0-24h, Gmean",[7],"33,600 ng×h/mL"
same,"imatinib AUClast, Gmean",[7],"33,600 ng×h/mL"
